Test results from patent US20080138299A1, “Oral Pharmaceuticals or Oral Hygiene Products Comprising Licorice Flavonoid Extract” (Hawley & Hazel (BVI) Company Limited, priority 2006, published 2008).

Key:
[1] = tested on: Streptococcus mutans (S. m) ATCC 25175; assay: Broth micro-dilution MIC; format: cell-based; details: no unit in table; dilution series 250-0.12 mg/L, ceiling 250 ppm; 37 °C, 18-24 h; smaller = stronger
Text: (§1) 3. The Inhibition Experiment of Licochalone A and Total Flavonoid Extracts of Zhangguo Licorice (Glycyrrhiza inflate Betal) on Primary Oral Pathogenic Microorganisms 3.1 The Cultivation of the Bacteria Species: Streptococcus mutans (ATCC 25175), Actinomyces naeslundii (ATCC 12104), Actinobacillus actinomycetemicomtans (ATCC 43717), Porphyromonas gingivalis (ATCC 33277), Listed as Following:
(§2) A single colony is picked from the Trypticase Digested Soybean peptone agar blood plate (TSA5B) ordinarily stored bacteria species to Trypticase Digested Soybean peptone broth (TSB), cultivated in microaerobic environment (only P.g needs anaerobic cultivation) with 95% air, 5% CO2 at 37.0° C.±1.0° C., wherein S.m is cultivated for 18-24 h, and the remaining three are cultivated for 40-48 h. Then sterile TSB is used to adjust the turbidity of the bacteria suspension to 0.5^#McFarland standard, equivalent to 1.0×10^8 CFU/mL.
(§3) After performing a series of 2-fold dilutions to the anti-bacteria pharmaceuticals, rationally inoculate with tested bacteria, and observe after incubated at 37° C. for 18-24 h, wherein the lowest pharmaceutical concentration that inhibits the growth visible to the naked eye of the tested bacteria is the minimum inhibitive concentration (MIC) of the tested pharmaceuticals to the tested bacteria. The operating steps are:
(§4) a. Preparation of the stock solution of antibacterial pharmaceutical: Prepare 1% stock solution of various antibacterial pharmaceuticals dope with 100% pure ethanol as solvent. The prepared stock solution is filtered to eliminate bacteria, and is distributed into small portions to be used. b. Range of measured concentration: the present experiment chooses 250 ppm as the ceiling measured concentration of the anti-bacteria pharmaceutical. c. Measuring method: micro-dilution method.
(§5) First add 100 μL TSB to each hole of the 96-well plate, and add 100 μL sterile anti-bacteria pharmaceutical solution which is diluted 10-folds (1000 mg/l) to each hole of the first column, then blow on each hole of the first column repeatedly for 7-8 times using multi-channel micropipet, transfer 100 μL sample to the second column after sufficiently mixing the pharmaceutical with TSB, and after similarly blowing for 7-8 times, transfer 100 μL sample to the third column, and analogously to the last column, thus the concentration of pharmaceutical is 2-fold gradiently diluted, from 500 mg/L of the first column to 0.24 mg/L of the last column (the 12th column).
(§6) The bacteria to be tested and standard bacteria are prepared as above. Dilute the bacteria solution with TSB to a bacteria content of about 10^6 CFU/mL. Then inoculate 100 μL for each hole. Thus the final diluted concentration of the anti-bacteria pharmaceutical in each line are 250, 125, 62.5 . . . 0.12 mg/L, and the final inoculation quantity is about […] or 5×10^6 bacteria each hole; the 96-well plate is placed on a microshaker and is shook for 1 min to mix the solution in each hole. The microwell plate is covered and is sealed with adhesive paper to reduce the evaporation during the incubation process and is placed in a humid box, cultivated in microaerobic environment with 95% air, 5% CO2 (or in anaerobic environment with 90% N2, 5% H2, 5% CO2) at 37.0° C.±1.0° C. for 18-24 h. The 96-well plate is placed under an enzyme-labeling instrument, and by comparing the growing characteristics of the tested bacteria with the standard bacteria, the lowest anti-bacteria pharmaceutical concentration contained in the hole without bacteria is taken as MIC.

[2] = tested on: Porphyromonas gingivalis (P. g) ATCC 33277; assay: Broth micro-dilution MIC; format: cell-based; details: no unit in table; dilution series 250-0.12 mg/L, ceiling 250 ppm; anaerobic, 37 °C, 18-24 h; smaller = stronger
Text: as §1, §2, §3, §4, §5, §6

[3] = tested on: Actinomyces naeslundii (A. n) ATCC 12104; assay: Broth micro-dilution MIC; format: cell-based; details: no unit in table; dilution series 250-0.12 mg/L, ceiling 250 ppm; 37 °C, 18-24 h; smaller = stronger
Text: as §1, §2, §3, §4, §5, §6

[4] = tested on: Actinobacillus actinomycetemcomitans (A. a) ATCC 43717; assay: Broth micro-dilution MIC; format: cell-based; details: no unit in table; dilution series 250-0.12 mg/L, ceiling 250 ppm; 37 °C, 18-24 h; smaller = stronger
Text: as §1, §2, §3, §4, §5, §6

IL-6 = assay: KB cell Luminex liquid-phase chip analysis; format: cell-based, human; details: KB cell supernatant, higher = stronger, test concentration not given
Procedure: (§7) During the experiment, the KB cell inoculated in the cultivating plate is treated with or without (control) Licochalone A. After the treatment, the supernatant of the cultivated liquid is collected and stored in −80 C refrigerator. The PGE2 in the supernatant is detected by Enzyme-linked immunsorbent assay, and Luminex multifunctional liquid-phase chip analysis system is used for the detection of GM-CSF, TNF-α, IL-1β and IL-6 (the result is shown in Table 3).
(§8) The 96-well plate is enclosed for 30 min. The fluorescent microspheres are added into the 96-well plate after dilution. Add the standard sample and the sample to be measured, stay overnight at 4° C. In the next day, the supernatant is discarded, and 50 μl GM-CSF, TNF-α, IL-1β and IL-6 antibodies are added to each hole. After rinsing 4 times, the 96-well plate is placed in a shaking table under ambient temperature to shade from light for 1 h, rinse 4 times, and add PE labeled with streptavidin and shade from light for 15 min at room temperature. Rinse 4 times, the microspheres are suspended in the rinsing buffer, and the 96-well plate is immediately placed on Luminex (Luminex Corporation, Austin, Tx.) to analyze.

IL-1β = assay: KB cell Luminex liquid-phase chip analysis; format: cell-based, human; details: KB cell supernatant, higher = stronger, test concentration not given
Procedure: as §7, §8

GM-CSF = assay: KB cell Luminex liquid-phase chip analysis; format: cell-based, human; details: KB cell supernatant, higher = stronger, test concentration not given
Procedure: as §7, §8

TNF-α = assay: KB cell Luminex liquid-phase chip analysis; format: cell-based, human; details: KB cell supernatant, higher = stronger, test concentration not given
Procedure: as §7, §8

Structure (SMILES) | minimum inhibitive concentration (MIC), S. m [1] | minimum inhibitive concentration (MIC), P. g [2] | minimum inhibitive concentration (MIC), A. n [3] | minimum inhibitive concentration (MIC), A. a [4] | IL-6 (interleukin) (anti-inflammatory ability) (IL-6) [%] | IL-1β (interleukin) (anti-inflammatory ability) (IL-1β) [%] | GM-CSF (anti-inflammatory ability) (GM-CSF) [%] | TNF-α (Tumor Necrosis Factor) (anti-inflammatory ability) (TNF-α) [%]
Oc1cc(Cl)ccc1Oc1ccc(Cl)cc1Cl [Triclosan] | 3.9 | 7.8 | 3.9 | 1.9 | 31 | 7 | 5 | 81
C=CC(C)(C)c1cc(/C=C/C(=O)c2ccc(O)cc2)c(OC)cc1O [Licochalone A, 5-(1,1-Dimethylallyl)-4,4′-dihydroxy-2-methoxychalcone] | 7.8 | 1.9 | 7.8 | >250 | 50 | 19 | 8 | 95
